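Values below derive from 48-hour exposures of cells grown in 96-well plates, with endpoints linearly interpolated between the two concentrations bracketing the appropriate inhibition level. The concentration for 50% growth inhibition is given as GI50. At the TGI there is no net growth.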
Key:
Experiment in all cases: NCI anticancer screen, dose series, 48 h
OVCAR-3 ovarian = test system: OVCAR-3 ovarian
SK-MEL-28 melanoma = test system: SK-MEL-28 melanoma
NCI-H460 lung = test system: NCI-H460 lung
SF-539 CNS = test system: SF-539 CNS
OVCAR-4 ovarian = test system: OVCAR-4 ovarian
HL-60(TB) leukemia = test system: HL-60(TB) leukemia
SK-OV-3 ovarian = test system: SK-OV-3 ovarian
CAKI-1 renal = test system: CAKI-1 renal
HOP-92 NSCLC = test system: HOP-92 NSCLC
MCF7 breast = test system: MCF7 breast

SMILES	TGI (OVCAR-3 ovarian)	TGI (SK-MEL-28 melanoma)	TGI (NCI-H460 lung)	TGI (SF-539 CNS)	TGI (OVCAR-4 ovarian)	TGI (HL-60(TB) leukemia)	TGI (SK-OV-3 ovarian)	TGI (CAKI-1 renal)	TGI (HOP-92 NSCLC)	GI50 (OVCAR-3 ovarian)	GI50 (HOP-92 NSCLC)	GI50 (NCI-H460 lung)	GI50 (SF-539 CNS)	GI50 (OVCAR-4 ovarian)	GI50 (HL-60(TB) leukemia)	GI50 (SK-OV-3 ovarian)	GI50 (CAKI-1 renal)	GI50 (MCF7 breast)	TGI (MCF7 breast)	GI50 (SK-MEL-28 melanoma)
O=C(O)c1ccc2c(c1)C(=O)N(c1ccc(S(=O)(=O)c3ccc(N4C(=O)c5ccc(C(=O)O)cc5C4=O)cc3)cc1)C2=O	> 100 µM	> 100 µM	> 100 µM	> 100 µM	> 100 µM	> 100 µM	> 100 µM	> 100 µM												
N#Cc1c2ccccc2c(Cc2ccc3c(c2)OCCOCCOCCOCCOCCO3)c2ccccc12	16.4 µM	19.4 µM	25.1 µM	29.7 µM	17.4 µM		27.9 µM	22.2 µM	12.2 µM											
C/C=C/C(=O)Oc1cccc2cccnc12	> 73.6 µM	61.6 µM	23 µM	40.1 µM	22 µM	> 33.8 µM	> 100 µM	93.8 µM	57.9 µM											
CC1(C)C(=O)OC(n2cc(F)c(=O)[nH]c2=O)C1=O (stereo not drawn)	> 100 µM	> 100 µM	> 100 µM	> 100 µM	> 100 µM	> 100 µM	> 100 µM		98.6 µM											
COc1ccc(CN2C(=O)[C@@H]3Cc4c(OC)c(C)c(OC)c(OC)c4[C@H](/C2=C\c2cc(OC)c(OC)c(C)c2OC)N3C(=O)OC(C)C)cc1	> 100 µM	> 100 µM	> 100 µM	> 100 µM	> 100 µM	> 100 µM	> 100 µM	> 100 µM	> 100 µM											
CN(C)NC(=O)/C(=C/c1ccc(Cl)cc1)NC(=O)c1ccccc1	> 100 µM	> 100 µM	> 100 µM	> 100 µM	> 100 µM	> 100 µM	> 100 µM	> 100 µM	> 100 µM											
CCOC(=O)C1=C(C)NC(=O)NC1c1ccc(OC)cc1OC (stereo not drawn)	> 100 µM		> 100 µM			> 100 µM	> 100 µM	> 100 µM	> 100 µM											
COC(=O)C1=CC2C(=O)OC1C1C(=O)NC(=O)C21 (stereo not drawn)	> 100 µM	> 100 µM	> 100 µM	> 100 µM	> 100 µM	> 100 µM	> 100 µM	> 100 µM	> 100 µM											
CC1(C)c2ccccc2N2C(c3ccccc3)=NOC21C (stereo not drawn)	> 100 µM	> 100 µM	> 100 µM	> 100 µM	> 100 µM	> 100 µM	> 100 µM	> 100 µM	> 100 µM											
CC1OC(n2cc(C(F)(F)F)c(=O)[nH]c2=O)C=CC1=O (stereo not drawn)	31.9 µM	38.2 µM	48.6 µM	35.2 µM	26.8 µM	41.2 µM	44.9 µM		41 µM											
N#C/C(=C\c1c(O)cc(O)cc1O)C(N)=O	> 100 µM	> 100 µM	> 100 µM	> 100 µM	> 100 µM	> 100 µM	> 100 µM	> 100 µM	> 100 µM											
O=C(Oc1ccccc1)N(c1ccccc1)c1ccccc1	> 100 µM		89.2 µM	> 100 µM	> 100 µM	71.4 µM	> 100 µM	37.6 µM	66.9 µM	23.7 µM	19 µM	26.4 µM	30.4 µM	25.1 µM	28.2 µM	47.3 µM	12.1 µM			
COc1ccc(Cn2cc(COc3cc(/C=C/C(=O)c4cc(OC)c(OC)c(OC)c4)ccc3OC)nn2)cc1	6.71 µM	> 100 µM	40.4 µM	12.9 µM	> 100 µM	35.1 µM	9.18 µM	> 100 µM		2.62 µM		4.39 µM	3.02 µM	7.04 µM	4.55 µM	3.02 µM	5.68 µM	3.15 µM	> 100 µM	7.45 µM
c1ccc(C2=NOC3C4CCC(C4)C23)cc1 (stereo not drawn)	> 100 µM	> 100 µM	> 100 µM	> 100 µM	> 100 µM	> 100 µM	> 100 µM	> 100 µM	> 100 µM											
CN(c1ccccc1)c1cc2ccccc2nn1	> 100 µM	> 100 µM	> 100 µM	> 100 µM	> 100 µM	> 100 µM	> 100 µM	> 100 µM	> 100 µM											
O=c1nc2sc3ccccc3c(=O)n2[nH]1	> 100 µM	> 100 µM	> 100 µM	> 100 µM	> 100 µM	> 100 µM	> 100 µM	> 100 µM	> 100 µM											

From PubChem BioAssay (NCI)
